US20240293553A1, “P-SELECTIN INHIBITORS AND USES THEREOF” (Beth Israel Deaconess Medical Center, Inc., priority 2021, published 2024)
“And” between values parts separate entries of the source, which are not always exact repeats. Equal values may be shown once. Read-outs that look alike come from different tables or passages of the source. One block for each molecule: values may come before it. Square brackets hold non-standard residues; d marks the D form. Ends that are not written are not given here. Peptide text beside a SMILES is read from it. * marks the point of attachment. X1 = CC(=O)N[C@H]1[C@H](OCCn2cc(C*)nn2)O[C@H](CO)[C@@H](O[C@@H]2O[C@H](CO)[C@H](O)[C@H](O[C@]3(C(=O)O)C[C@H](O)[C@@H](NC(C)=O)[C@H]([C@H](O)[C@H](O)CO)O3)[C@H]2O)[C@@H]1O[C@@H]1O[C@@H](C)[C@@H](O)[C@@H](O)[C@@H]1O; Phe(4-CH2SO3H) = N[C@@H](Cc1ccc(CS(=O)(=O)O)cc1)C(=O)O

Legend:
[1] = tested on: human P-selectin; assay: Glycopeptide microarray binding assay, P-selectin; details: human P-selectin 5 μg/mL; compounds at 50 μM
Description: (§1) For a multi-panel experiment on a single slide, the array layout was designed using Piezoarray software according to the dimension of a standard 14-chamber adaptor. The adaptor was applied on the slide to separate a single slide to 14 chambers sealed from each other during the experiment. All glycopeptides and control samples were printed on an NHS-activated glass slide in phosphate buffer (300 mM sodium phosphates, pH 8.5). The average spot volume was within 10% variation (intra-tip) of 0.33 nL. The average spot size was 100 μm. […] These AEAB derivatives and control biotin-NHNH2, all at 50 μM concentration, were printed on the microarray as controls and reference standards. After printing, the slide was placed in a high moisture chamber at 50° C. and incubated for 1 h. The slide was subsequently washed and blocked with 50 mM ethanolamine in 0.1 M Tris buffer (pH 8.0) for 1 h, dried by centrifugation, and stored desiccated at −20° C. prior to use. […] The scanned images were analyzed using ScanArray Express software.
(§2) The binding affinity of G4 towards P-selectin was initially screened using microarray technology. G4 along with 11 additional structural variants and synthetic intermediates, as well as […] glycan standards (sLe^x, NA2, NA2,3, NA2,6, asialobiantennary, asialotetra-saccharide) were printed on an NHS-activated glass slide (FIGS. 7A-7C). The slide was then incubated with a recombinant immunoglobulin (Ig) chimera of P-sel (5 μg mL^−1) or monoclonal antibodies, PL1, specific to the N-terminal PSGL-1 peptide sequence, CHO131, specific to the Core 2 O-glycan terminated with sLe^X, or HECA-452, specific to sLe^x. The array was then washed and incubated with Alexa-488-labelled anti-human IgG antibody (5 μg/mL). […] Of note, the PL1 epitope spans residues 49-62, which includes the key sequence -L-P-E-T-E-P- (84). Thus, modification of the key T residue within the PL1 epitope alters PL1 binding, but not P-selectin binding. Binding of glycopeptide mimics was Ca2^+ dependent and inhibited by EDTA.

[2] = tested on: HECA-452, a monoclonal antibody specific to sLe^x; assay: Glycopeptide microarray binding assay, HECA-452
Description: as §1, §2

[3] = target: T1, P-selectin (Homo sapiens, UniProt P16109); details: literature values; cited from earlier work
T1 sequence (P16109 42-830): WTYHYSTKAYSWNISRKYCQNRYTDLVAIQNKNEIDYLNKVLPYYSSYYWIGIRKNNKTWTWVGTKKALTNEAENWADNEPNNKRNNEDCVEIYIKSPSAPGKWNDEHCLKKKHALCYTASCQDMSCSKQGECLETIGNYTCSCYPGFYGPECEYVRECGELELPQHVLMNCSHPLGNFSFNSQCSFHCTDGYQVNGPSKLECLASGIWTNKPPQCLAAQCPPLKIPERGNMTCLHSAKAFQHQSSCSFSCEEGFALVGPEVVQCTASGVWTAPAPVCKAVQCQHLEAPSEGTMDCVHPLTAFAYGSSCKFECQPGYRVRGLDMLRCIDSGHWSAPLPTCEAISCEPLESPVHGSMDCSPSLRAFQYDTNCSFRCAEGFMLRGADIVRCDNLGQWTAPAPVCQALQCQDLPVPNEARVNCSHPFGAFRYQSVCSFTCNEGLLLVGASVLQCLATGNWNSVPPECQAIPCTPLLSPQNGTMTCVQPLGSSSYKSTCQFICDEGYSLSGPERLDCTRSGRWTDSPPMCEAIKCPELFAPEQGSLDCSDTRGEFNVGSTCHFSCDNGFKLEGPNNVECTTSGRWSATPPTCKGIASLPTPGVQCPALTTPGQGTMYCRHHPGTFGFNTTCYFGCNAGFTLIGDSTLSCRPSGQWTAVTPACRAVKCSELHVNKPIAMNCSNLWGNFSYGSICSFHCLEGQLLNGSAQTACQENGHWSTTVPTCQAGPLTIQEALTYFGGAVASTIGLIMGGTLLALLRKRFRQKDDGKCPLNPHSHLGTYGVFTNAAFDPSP

[4] = tested on: venous thrombus; assay: Murine model of non-occlusive venous thrombosis (electrolytic injury of the inferior vena cava); format: in vivo, C57BL/6 mice; details: 48 h after injury; glycopeptide 8 μmol/kg IV, LMWH (enoxaparin) 6 mg/kg SC
[5] = tested on: PL1, a monoclonal antibody specific to the N-terminal PSGL-1 peptide sequence; assay: Glycopeptide microarray binding assay, PL1
Description: as §1
(§3) The binding affinity of G4 towards P-selectin was initially screened using microarray technology. G4 along with 11 additional structural variants and synthetic intermediates, as well as five glycan standards (sLe^x, NA2, NA2,3, NA2,6, asialobiantennary, asialotetra-saccharide) were printed on an NHS-activated glass slide (FIGS. 7A-7C). […]

[6] = in vivo; details: C57BL/6, mouse, iv, 8 umol/kg
[7] = tested on: platelet-leukocyte aggregates; assay: Platelet-leukocyte aggregation in human whole blood (PAR1-activating peptide), flow cytometry; format: cell-based; details: 120 μM
Description: (§4) Platelet-leukocyte aggregates were quantified in whole blood using dual-label flow cytometry (CytoFlex LX, Beckman Coulter). […] Platelet-leukocyte aggregates were quantified by two-color flow cytometry by incubating human samples with anti-CD45-APC (BD Biosciences) and anti-CD42a-FITC (BD Biosciences) and mouse samples with anti-CD45-eFluor506 (Invitrogen), anti-CD11b-APC (BD Biosciences), anti-Ly-6G-PE (BD Biosciences), and anti-CD41-FITC (BD Biosciences). […] Inhibition experiments were conducted in triplicate.
(§5) PSGL-1/P-selectin binding are responsible for the generation of platelet-leukocyte aggregates, which leads to the release of neutrophil extracellular traps and other procoagulant factors, as well as the infiltration of leukocytes (86, 87).

[8] = tested on: CHO131, a monoclonal antibody specific to the Core 2 O-glycan terminated sLe^x; assay: Glycopeptide microarray binding assay, CHO131
Description: as §1, §3

[9] = target: T2, murine P-selectin-Fc chimera (Mus musculus, UniProt Q01102); assay: Flow cytometry inhibition of P-selectin-Fc chimera binding to murine leukocytes; format: cell-based; details: P-selectin-Fc chimera 3 μg/mL
T2 construct: purchased R&D Systems

[10] = tested on: platelet-leukocyte aggregates; assay: Platelet-leukocyte aggregation in mouse whole blood (PAR4-activating peptide), flow cytometry; format: cell-based; details: 120 μM
Description: as §4, §5

[11] = target: T1, P-selectin; details: reported values; cited from earlier work
[12] = target: human P-selectin; assay: Biacore surface plasmon resonance binding assay (biotinylated ligand captured, P-selectin-Ig flowed); details: human P-selectin-Ig 0.4-100 nM
Description: Biotinylated G4 was first captured quantitatively on a streptavidin-coated sensor chip (GE Healthcare). Different amounts of P-selectin-Ig chimera (P-Sel-Ig) were incubated in the wells (0.4-100 nM) and bound P-selectin detected using fluorescently labelled anti-human IgG. PL1 and CHO131 were used to confirm the immobilization step and to compare the relative amount of glycopeptide on the chip. Bound monoclonal antibodies and P-selectin were removed from the sensor chip by injecting 10 mM glycine-HCl, pH 2.0 and 50 mM EDTA, respectively, at 20 μL/min for 30 s. The kinetic parameters were obtained by plotting the curves using a 1:1 binding model provided by the Biacore evaluation software.

T2 sequence (Q01102 with tags, fused parts or gaps limits assumed): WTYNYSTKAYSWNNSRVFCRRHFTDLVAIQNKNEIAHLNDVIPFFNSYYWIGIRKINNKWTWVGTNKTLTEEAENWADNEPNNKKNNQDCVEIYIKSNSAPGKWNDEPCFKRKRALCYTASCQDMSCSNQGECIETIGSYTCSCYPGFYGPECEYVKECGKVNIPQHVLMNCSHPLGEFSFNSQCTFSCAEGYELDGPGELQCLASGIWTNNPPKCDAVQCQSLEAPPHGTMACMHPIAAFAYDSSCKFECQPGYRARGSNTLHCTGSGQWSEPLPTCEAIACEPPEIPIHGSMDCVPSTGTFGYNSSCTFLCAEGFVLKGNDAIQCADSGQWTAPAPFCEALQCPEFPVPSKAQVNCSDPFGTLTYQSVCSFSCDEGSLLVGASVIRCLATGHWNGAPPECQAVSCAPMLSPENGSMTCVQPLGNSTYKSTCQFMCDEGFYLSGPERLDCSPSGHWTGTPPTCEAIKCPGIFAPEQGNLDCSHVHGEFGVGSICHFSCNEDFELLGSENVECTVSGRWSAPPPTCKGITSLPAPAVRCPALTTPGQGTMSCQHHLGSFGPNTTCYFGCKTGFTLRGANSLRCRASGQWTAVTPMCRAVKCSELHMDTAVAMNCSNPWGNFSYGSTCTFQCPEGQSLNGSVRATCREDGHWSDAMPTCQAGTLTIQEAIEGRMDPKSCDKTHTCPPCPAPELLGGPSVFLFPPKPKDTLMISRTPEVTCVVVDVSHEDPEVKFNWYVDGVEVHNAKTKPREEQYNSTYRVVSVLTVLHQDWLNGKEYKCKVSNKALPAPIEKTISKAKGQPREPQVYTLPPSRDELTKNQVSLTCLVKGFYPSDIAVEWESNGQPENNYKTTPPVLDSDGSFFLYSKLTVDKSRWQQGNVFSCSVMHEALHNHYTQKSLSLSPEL

Molecule: O=C(O)c1c(O)c(C2(c3ccc(Cl)cc3)CC2)nc2c(C(F)(F)F)cccc12 [PSI-421, 2-[1-(4-chlorophenyl)cyclopropyl]-3-hydroxy-8-(trifluoromethyl)quinoline-4-carboxylic acid]
IC50 [3]: 225 µM

Molecule: C[C@@H]1O[C@@H](O[C@@H]2[C@@H](NC(=O)c3cc(=O)[nH]c(=O)[nH]3)C[C@@H](C(=O)NCCNC(=O)COCCOCC(=O)Nc3cc(S(=O)(=O)O)cc4cc(S(=O)(=O)O)cc(S(=O)(=O)O)c34)C[C@H]2O[C@@H]2O[C@H](CO)[C@H](O)[C@H](O[C@@H](CC3CCCCC3)C(=O)O)[C@H]2OC(=O)c2ccccc2)[C@@H](O)[C@H](O)[C@@H]1O [GMI-1070]
IC50 [3]: 423 µM

Molecule: enoxaparin
venous thrombus formation / thrombus weight versus saline vehicle [4]: significant reduction

Second part, led by results:

Binding to P-selectin on microarray [1]: strongly bound
Binding of HECA-452 on microarray [2]: strongly bound
Molecule: EY*EY*LDY*DFLPET(Neu5Acα2-3Galβ1-4(Fucal-3)GlcNAcβ1-6Galβ1-3GalNAcα)EPPEM (EYEYLDYDFLPET(Neu5Acα2‑3Galβ1‑4(Fucal-3)GlcNAcβ1‑6Galβ1‑3GalNAcα)EPPEM; not fully specified (residues 2, 4, 7)) [GSP-6]

Binding of PL1 on microarray [5]: neither PL1 or CHO131 bound
half-life [6]: 13.2 ± 5.04 min
Binding of CHO131 on microarray [8]: neither PL1 or CHO131 bound
IC50 ([9]; murine monocytes, read-out: IC50, P-selectin binding to murine monocytes): 10 µM
IC50 ([9]; murine neutrophils, read-out: IC50, P-selectin binding to murine neutrophils): 10 µM
Binding to P-selectin on microarray [1]: strongly bound
Binding of HECA-452 on microarray [2]: strongly bound
Molecule: CC(=O)N[C@H]1[C@H](OCCn2cc(CO[C@H](C)[C@H](NC(=O)[C@H](CCC(=O)O)NC(=O)[C@@H]3CCCN3C(=O)[C@H](CC(C)C)NC(=O)[C@H](Cc3ccccc3)NC(=O)[C@H](CC(=O)O)NC(=O)[C@H](Cc3ccc(CS(=O)(=O)O)cc3)NC(=O)[C@H](CC(=O)O)NC(=O)[C@H](CC(C)C)NC(=O)[C@H](Cc3ccc(CS(=O)(=O)O)cc3)NC(=O)[C@H](CCC(=O)O)NC(=O)[C@H](Cc3ccc(CS(=O)(=O)O)cc3)NC(=O)[C@H](CCC(=O)O)NC(=O)[C@H](CCCCN)NC(C)=O)C(=O)N[C@@H](CCC(=O)O)C(=O)N3CCC[C@H]3C(=O)N[C@@H](CC(C)C)C(=O)O)nn2)O[C@H](CO)[C@@H](O[C@@H]2O[C@H](CO)[C@H](O)[C@H](O[C@]3(C(=O)O)C[C@H](O)[C@@H](NC(C)=O)[C@H]([C@H](O)[C@H](O)CO)O3)[C@H]2O)[C@@H]1O[C@@H]1O[C@@H](C)[C@@H](O)[C@@H](O)[C@@H]1O [G4, KEF*EF*LDF*DFLPET(Neu5Acα2-3Galβ1-4(Fucal-3)GlcNAc)EPL] (Ac-KE[Phe(4-CH2SO3H)]E[Phe(4-CH2SO3H)]LD[Phe(4-CH2SO3H)]DFLPET(X1)EPL-OH)
Inhibition of human platelet-monocyte aggregates [7]: 33%
Inhibition of human platelet-neutrophil aggregates [7]: 28%
Inhibition of murine platelet-monocyte aggregates [10]: 41%
Inhibition of murine platelet-neutrophil aggregates [10]: 38%

Binding to P-selectin on microarray [1]: strongly bound
Kd [12]: 0.027 µM
Binding of HECA-452 on microarray [2]: strongly bound
Molecule: KEF*EF*LDF*DFLPET(Neu5Acα2-3Galβ1-4(Fucal-3)GlcNAcβ1-6(Galβ1-3)GalNAcα)EPL (KEFEFLDFDFLPET(Neu5Acα2‑3Galβ1‑4(Fucal-3)GlcNAcβ1‑6(Galβ1-3)GalNAcα)EPL; not fully specified (residues 3, 5, 8)) [GSnP-6, previously reported glycosulfonopeptide P-selectin antagonist, reference compound]
Kd [11]: 0.022 µM and 0.027 µM
